Laboratory results taken from patent US8785430B2, “Compound that can inhibit UBC13-UEV interactions, pharmaceutical compositions and therapeutic uses” (Consejo Superior de Investigaciones Cientificas, priority 2006, dated 2014).

Columns and labels:
[1] = biological target: T1, binding of UEV1 to GST-UBC13 (Homo sapiens, UniProt P61088); experiment: Purified recombinant protein interaction assay, UEV1 binding to GST-UBC13 on glutathione-Sepharose; settings: for UEV1 in the fraction which is eluted and not bound to GST-UBC13: 100 μM; for inhibition of the interaction of UEV1 with UBC13 at lower concentrations: much lower concentrations, of up to 10 nM
T1 construct: made in house; host or cells: Escherichia coli BL21
T1 sequence (P61088 1-152): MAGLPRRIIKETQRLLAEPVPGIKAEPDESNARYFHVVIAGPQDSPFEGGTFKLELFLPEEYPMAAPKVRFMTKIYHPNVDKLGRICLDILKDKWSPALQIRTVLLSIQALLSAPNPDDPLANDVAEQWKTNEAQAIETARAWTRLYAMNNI
Method: To determine the activity of these compounds in acellular assays, protein-protein interaction experiments were performed with recombinant proteins produced in Escherichia coli. To express UBC13 and UEV1, bacterial cells of the E. coli strain BL21 were transformed with plasmids pGEX-4T1-UBC13 or pGEX-4T3-UEV1, transformed colonies being selected by means of growth in plates with ampicillin (100 μg/mL). Individual colonies were transferred to 3 L of LB medium without antibiotics, being grown with stirring at 37° C. until the culture reached the exponential phase (OD600˜0.6), at which time the expression of the recombinant proteins was induced by means of adding isopropyl […] (IPTG, Sigma I-6758) at a concentration of 1 mM for 5 hours to the culture. The cultures were transferred to tubes, centrifuged and the cell pellets were resuspended in twice their volume of phosphate buffered saline (PBS) at pH 7.4 and were broken in a Cell Disruptor instrument (Constant Systems). The cell lysates were filtered through cellulose acetate filters with […] (Millipore SLHA033SS) and were applied to GSTrap FF columns (Amersham Biosciences 17-5131-01). In the case of UEV1, the protein bound specifically to the column was subjected to enzymatic digestion on the same column with 50 units of thrombin (Amersham Biosciences 27-0846-01) at 25° C. overnight. A HiTrapBenzamidine FF column (Amersham Biosciences 27-0846-01) was coupled to the previous column, such that the GST unit was trapped in the first column, and the thrombin in the second column. Then the UEV1 protein was eluted, without the GST portion, followed by a subsequent step of purification by means of gel filtration chromatography with a Superdex 75 column. The GST-UBC13 recombinant protein was expressed as indicated above, being purified by means of affinity chromatography in GSTrap FF columns, followed by filtration chromatography in Superdex 75. The fractions corresponding to the purified proteins were concentrated by means of centrifugation in Centricon YM-10 columns (Millipore 4205), being stored at 4° C. until their use.
To determine the effects of compounds Ia and Ib on the interaction of UBC13 with UEV1, 2 μL of the GST-UBC13 chimeric recombinant protein, at a concentration of […] in a 50 mM Hepes buffer, 100 mM NaCl, 1 mM EDTA, 0.5 mM DTT at pH 7.6 were pre-incubated for 30 minutes at room temperature with the compounds Varubin, Ib or the cyclic control compound VIII-N6-2-1C at final concentrations of 10 nM, 100 nM, 1 μM, 10 μM or 100 μM. […]

[2] = test system: transcriptional activity of NF-κB induced by TNFα; experiment: NF-κB luciferase reporter assay, stimulation by TNFα in HeLa cells; assay type: cell-based; settings: TNFα 10 ng/mL; for inhibition of the stimulation of the transcriptional activity of NF-κB induced by TNFα: HeLa cells, different concentrations
Method: To determine the activity of compounds Ia and Ib on the stimulation of the NFκ-B activity by TNFα, assays for inducing luciferase activity (determined with the Dual-Luciferase Reporter Assay System kit, Promega, catalog number E1910) generated by expression of the firefly (Photinus pyralis) luciferase gene directed by a promoter containing three recognition sites for NFκ-B were performed. To that end, HeLa cells were co-transfected with plasmid pRL-TK, encoding the Renilla reniformis Luciferase and being a transfection efficiency control, and plasmid prLUC, a plasmid which allows determining the transcriptional activity of NF-κB, using Fugene (Roche) as a transfection vehicle. 100,000 cells were seeded in 6-well plates (Costar). On the following day, the transfection complex was formed with 0.5 μg of each plasmid and 3 μl of Fugene for 15 minutes. The complex was added to the cells in Optimem medium (InVitrogen), and after 5 hours it was changed to complete medium (Dulbecco's Modified Eagle's Medium with 10% fetal bovine serum, 2 mM of glutamine, supplemented with penicillin and streptomycin), to which the compound Varubin (Ia) or Ib at different concentrations was added or not. On the following day, the cells were incubated with TNFα (10 ng/mL) for 4 hours, after which they were washed with phosphate buffered saline (PBS) and lysated with 250 μL of lysis buffer, following the manufacturer's (Promega) indications. 100 μL of luciferase reagent (LARII) were added to the lysate to measure the firefly luciferase activity, after which the reaction was stopped with 100 μL of stop buffer with Renilla reniformis luciferase substrate, this second activity being determined at that time. The firefly luciferase activity was standardized in relation to the Renilla luciferase activity. The values corresponding to cells transfected but not stimulated with TNFα were used as standardizers for the remaining experimental values. […]

Row | SMILES | UEV1 in the fraction which is eluted and not bound to GST-UBC13 [1] | inhibition of the interaction of UEV1 with UBC13 at lower concentrations [1] | inhibition of the stimulation of the transcriptional activity of NF-κB induced by TNFα [2] | inhibition at 100 µM ([2]; Homo sapiens, HeLa cells pre-incubated at 100 μM, read-out: inhibition of the activation of NF-κB by TNFα) [%]
1 | NC(=O)CN(CCc1ccccn1)C(=O)C1CC(=O)N(CCc2ccc(F)cc2)CC(=O)N1CCc1ccc(F)cc1 (stereo not shown) [Ia, N-aminocarbamoylmethyl-N-(2′-(2″pyridyl)ethyl)-1,4-bis[2′-(4″-fluorophenyl)ethyl]-3,7-dioxo-[1,4]diazepane-5-carboxamide] | up to 60% | efficient inhibition | inhibits in a dose-dependent manner | ~50
2 | NC(=O)CN(CCc1ccccn1)C(=O)CC1C(=O)N(CCc2ccc(F)cc2)CC(=O)N1CCc1ccc(F)cc1 (stereo not shown) [Ib, 1,4-bis[2′-(4″-fluorophenyl)ethyl]-2-[N-aminocarbonylmethyl-N-(2′-(2″-pyridyl)ethyl)-carbonylmethyl]piperazine-3,6-dione] | ≤ 40% | efficient inhibition | inhibits in a dose-dependent manner | –
